Test results reported in US20230109833A1, “METABOLICALLY STABLE N-ACYLAMINOOXADIAZOLES USEFUL AS ANTIBACTERIAL AGENTS” (MICROBIOTIX, INC., priority 2017, published 2023).

Tests used:
Assay type in all cases: binding
[1] = target: Cannabinoid CB1 (Homo sapiens, UniProt P21554); settings: 10 μM compound, Hit Profile Panel
[2] = target: Sigma σ1 (Homo sapiens, UniProt Q99720); settings: 10 μM compound, Hit Profile Panel
[3] = system: Rolipram; settings: rat; 10 μM compound; Hit Profile Panel
[4] = system: GABAA, Muscimol, Central; settings: rat; 10 μM compound; Hit Profile Panel
[5] = system: GABAA, Flunitrazepam, Central; settings: rat; 10 μM compound; Hit Profile Panel
[6] = target: Adenosine A2A (Homo sapiens, UniProt P29274); settings: 10 μM compound, Hit Profile Panel
Adenosine A2A, sequence (P29274 whole entry): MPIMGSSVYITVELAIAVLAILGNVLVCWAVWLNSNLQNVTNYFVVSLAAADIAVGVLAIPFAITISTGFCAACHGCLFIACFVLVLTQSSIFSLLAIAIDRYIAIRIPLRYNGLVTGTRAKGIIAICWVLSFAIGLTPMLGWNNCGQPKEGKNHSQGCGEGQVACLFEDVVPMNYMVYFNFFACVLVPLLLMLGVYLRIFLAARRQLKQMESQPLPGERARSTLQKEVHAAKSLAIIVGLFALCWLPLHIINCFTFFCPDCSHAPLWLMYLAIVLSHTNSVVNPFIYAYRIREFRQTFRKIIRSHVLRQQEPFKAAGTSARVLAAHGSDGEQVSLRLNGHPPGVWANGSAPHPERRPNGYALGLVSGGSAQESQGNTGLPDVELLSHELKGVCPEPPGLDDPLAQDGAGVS

[7] = target: T1, Adrenergic α1A (Rattus norvegicus, UniProt P43140); settings: 10 μM compound, Hit Profile Panel
T1 sequence (P43140 1-466): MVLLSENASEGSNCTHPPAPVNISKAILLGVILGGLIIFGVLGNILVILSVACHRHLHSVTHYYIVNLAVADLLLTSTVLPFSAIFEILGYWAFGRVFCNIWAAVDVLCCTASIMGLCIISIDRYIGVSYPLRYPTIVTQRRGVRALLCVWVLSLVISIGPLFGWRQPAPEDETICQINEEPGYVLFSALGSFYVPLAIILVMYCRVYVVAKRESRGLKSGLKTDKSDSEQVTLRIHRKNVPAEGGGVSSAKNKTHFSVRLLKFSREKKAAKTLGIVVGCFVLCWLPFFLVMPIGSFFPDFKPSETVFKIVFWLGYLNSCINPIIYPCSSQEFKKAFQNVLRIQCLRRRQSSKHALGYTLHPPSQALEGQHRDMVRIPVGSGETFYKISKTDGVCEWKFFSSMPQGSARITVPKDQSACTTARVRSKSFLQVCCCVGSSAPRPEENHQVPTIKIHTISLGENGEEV

[8] = target: T2, Adenosine A1 (Homo sapiens, UniProt P30542); settings: 10 μM compound, Hit Profile Panel
T2 sequence (P30542 1-326): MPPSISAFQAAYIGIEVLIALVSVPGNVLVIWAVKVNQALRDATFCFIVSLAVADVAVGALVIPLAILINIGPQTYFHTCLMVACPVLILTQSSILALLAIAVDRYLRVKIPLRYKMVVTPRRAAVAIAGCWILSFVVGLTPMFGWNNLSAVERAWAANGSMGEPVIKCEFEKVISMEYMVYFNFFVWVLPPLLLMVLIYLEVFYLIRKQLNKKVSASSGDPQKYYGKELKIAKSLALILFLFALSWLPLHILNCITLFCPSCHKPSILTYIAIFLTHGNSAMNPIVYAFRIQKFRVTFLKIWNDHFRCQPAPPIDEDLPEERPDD

[9] = target: Dopamine D1 (Homo sapiens, UniProt P21728); settings: 10 μM compound, Hit Profile Panel
Dopamine D1, sequence (P21728 whole entry): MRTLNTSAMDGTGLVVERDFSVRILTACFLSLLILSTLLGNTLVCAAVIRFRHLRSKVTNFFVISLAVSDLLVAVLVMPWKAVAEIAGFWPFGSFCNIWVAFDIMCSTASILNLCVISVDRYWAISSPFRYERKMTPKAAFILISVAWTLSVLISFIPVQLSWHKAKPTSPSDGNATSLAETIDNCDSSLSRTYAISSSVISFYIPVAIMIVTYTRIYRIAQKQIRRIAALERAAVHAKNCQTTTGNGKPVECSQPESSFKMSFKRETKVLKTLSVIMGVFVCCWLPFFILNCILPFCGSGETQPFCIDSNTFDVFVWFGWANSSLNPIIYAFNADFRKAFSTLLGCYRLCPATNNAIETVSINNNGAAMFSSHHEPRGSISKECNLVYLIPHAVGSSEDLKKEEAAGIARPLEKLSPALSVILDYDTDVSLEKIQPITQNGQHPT

[10] = target: Seritonin (5-Hydroxytryptamine) 5-HT2B (Homo sapiens, UniProt P41595); settings: 10 μM compound, Hit Profile Panel
[11] = target: T3, Adrenergic α1B (Rattus norvegicus, UniProt P15823); settings: 10 μM compound, Hit Profile Panel
T3 sequence (P15823 1-515): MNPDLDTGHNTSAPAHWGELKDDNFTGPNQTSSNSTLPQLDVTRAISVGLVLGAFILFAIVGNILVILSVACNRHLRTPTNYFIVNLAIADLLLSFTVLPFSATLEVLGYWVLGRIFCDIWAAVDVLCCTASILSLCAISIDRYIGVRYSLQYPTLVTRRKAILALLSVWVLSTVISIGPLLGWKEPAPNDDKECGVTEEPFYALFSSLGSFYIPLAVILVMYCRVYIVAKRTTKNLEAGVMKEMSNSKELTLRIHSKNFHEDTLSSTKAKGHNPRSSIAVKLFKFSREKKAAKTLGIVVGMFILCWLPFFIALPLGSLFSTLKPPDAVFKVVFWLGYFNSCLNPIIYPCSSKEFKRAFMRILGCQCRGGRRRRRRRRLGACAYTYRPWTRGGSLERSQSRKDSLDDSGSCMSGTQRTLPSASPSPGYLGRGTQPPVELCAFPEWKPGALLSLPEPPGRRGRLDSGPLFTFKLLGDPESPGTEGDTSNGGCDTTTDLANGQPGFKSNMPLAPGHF

[12] = target: Opiate μ(OP3, MOP) (Homo sapiens, UniProt P35372); settings: 10 μM compound, Hit Profile Panel
[13] = system: Glutamate, NMDA, Phencyclidine; settings: rat; 10 μM compound; Hit Profile Panel
[14] = system: Phorbol Ester; settings: mouse; 10 μM compound; Hit Profile Panel
[15] = target: Muscarinic M3 (Homo sapiens, UniProt P20309); settings: 10 μM compound, Hit Profile Panel
Muscarinic M3, sequence (P20309 whole entry): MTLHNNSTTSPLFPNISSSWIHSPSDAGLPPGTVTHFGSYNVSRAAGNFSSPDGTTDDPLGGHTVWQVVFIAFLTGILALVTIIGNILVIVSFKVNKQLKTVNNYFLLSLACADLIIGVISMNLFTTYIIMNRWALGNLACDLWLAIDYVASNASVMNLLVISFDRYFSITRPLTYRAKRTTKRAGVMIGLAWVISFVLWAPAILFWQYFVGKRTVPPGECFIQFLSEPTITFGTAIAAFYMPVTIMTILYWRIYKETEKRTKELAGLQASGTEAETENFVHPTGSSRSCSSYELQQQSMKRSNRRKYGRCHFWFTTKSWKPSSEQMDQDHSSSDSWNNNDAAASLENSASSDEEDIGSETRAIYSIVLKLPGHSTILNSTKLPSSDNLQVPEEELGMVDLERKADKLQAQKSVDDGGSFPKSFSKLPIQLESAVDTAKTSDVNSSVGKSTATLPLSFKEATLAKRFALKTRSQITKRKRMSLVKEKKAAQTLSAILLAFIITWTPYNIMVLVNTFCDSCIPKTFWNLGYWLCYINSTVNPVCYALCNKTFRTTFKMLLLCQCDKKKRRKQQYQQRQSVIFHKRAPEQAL

[16] = target: Transporter, Norepinephrine (NET) (Homo sapiens, UniProt P23975); settings: 10 μM compound, Hit Profile Panel
Transporter, Norepinephrine (NET), sequence (P23975 whole entry): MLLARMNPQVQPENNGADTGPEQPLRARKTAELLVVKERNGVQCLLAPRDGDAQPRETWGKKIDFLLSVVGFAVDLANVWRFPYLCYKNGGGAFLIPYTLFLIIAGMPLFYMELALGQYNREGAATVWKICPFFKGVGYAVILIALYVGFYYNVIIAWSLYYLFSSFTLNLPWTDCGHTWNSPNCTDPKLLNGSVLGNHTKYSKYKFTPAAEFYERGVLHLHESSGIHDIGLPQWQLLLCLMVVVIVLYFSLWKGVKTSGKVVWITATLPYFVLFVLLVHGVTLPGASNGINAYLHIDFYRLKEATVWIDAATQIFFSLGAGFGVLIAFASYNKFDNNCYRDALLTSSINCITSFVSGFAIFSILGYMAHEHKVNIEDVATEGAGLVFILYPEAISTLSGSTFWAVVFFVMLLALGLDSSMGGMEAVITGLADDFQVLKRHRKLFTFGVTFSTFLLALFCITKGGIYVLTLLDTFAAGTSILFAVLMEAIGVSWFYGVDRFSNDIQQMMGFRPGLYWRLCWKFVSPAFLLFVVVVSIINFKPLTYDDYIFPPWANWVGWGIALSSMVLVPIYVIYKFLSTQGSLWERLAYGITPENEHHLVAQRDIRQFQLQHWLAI

[17] = system: Nicotinic Acetylcholine; settings: human; 10 μM compound; Hit Profile Panel
[18] = target: Adrenergic β2 (Homo sapiens, UniProt P07550); settings: 10 μM compound, Hit Profile Panel
[19] = target: Dopamine D2s (Homo sapiens, UniProt P14416); settings: 10 μM compound, Hit Profile Panel
Dopamine D2s, sequence (P14416 1-414 isoform P14416-2): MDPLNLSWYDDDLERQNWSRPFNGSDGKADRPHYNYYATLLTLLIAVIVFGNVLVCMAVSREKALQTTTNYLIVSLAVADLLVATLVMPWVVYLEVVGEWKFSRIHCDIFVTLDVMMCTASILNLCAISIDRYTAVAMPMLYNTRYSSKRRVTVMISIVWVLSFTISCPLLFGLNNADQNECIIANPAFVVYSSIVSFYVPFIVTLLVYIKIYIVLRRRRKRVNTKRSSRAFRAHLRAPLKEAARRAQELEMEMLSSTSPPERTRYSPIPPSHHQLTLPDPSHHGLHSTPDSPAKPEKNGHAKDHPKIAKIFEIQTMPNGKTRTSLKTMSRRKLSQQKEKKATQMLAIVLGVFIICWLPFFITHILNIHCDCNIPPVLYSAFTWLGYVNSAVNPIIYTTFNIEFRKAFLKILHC

[20] = target: Prostanoid EP4 (Homo sapiens, UniProt P35408); settings: 10 μM compound, Hit Profile Panel
[21] = target: Potassium Channel (KATP) (Cricetus cricetus, UniProt Q09427); settings: hamster; 10 μM compound; Hit Profile Panel
Potassium Channel (KATP), sequence (Q09427 whole entry): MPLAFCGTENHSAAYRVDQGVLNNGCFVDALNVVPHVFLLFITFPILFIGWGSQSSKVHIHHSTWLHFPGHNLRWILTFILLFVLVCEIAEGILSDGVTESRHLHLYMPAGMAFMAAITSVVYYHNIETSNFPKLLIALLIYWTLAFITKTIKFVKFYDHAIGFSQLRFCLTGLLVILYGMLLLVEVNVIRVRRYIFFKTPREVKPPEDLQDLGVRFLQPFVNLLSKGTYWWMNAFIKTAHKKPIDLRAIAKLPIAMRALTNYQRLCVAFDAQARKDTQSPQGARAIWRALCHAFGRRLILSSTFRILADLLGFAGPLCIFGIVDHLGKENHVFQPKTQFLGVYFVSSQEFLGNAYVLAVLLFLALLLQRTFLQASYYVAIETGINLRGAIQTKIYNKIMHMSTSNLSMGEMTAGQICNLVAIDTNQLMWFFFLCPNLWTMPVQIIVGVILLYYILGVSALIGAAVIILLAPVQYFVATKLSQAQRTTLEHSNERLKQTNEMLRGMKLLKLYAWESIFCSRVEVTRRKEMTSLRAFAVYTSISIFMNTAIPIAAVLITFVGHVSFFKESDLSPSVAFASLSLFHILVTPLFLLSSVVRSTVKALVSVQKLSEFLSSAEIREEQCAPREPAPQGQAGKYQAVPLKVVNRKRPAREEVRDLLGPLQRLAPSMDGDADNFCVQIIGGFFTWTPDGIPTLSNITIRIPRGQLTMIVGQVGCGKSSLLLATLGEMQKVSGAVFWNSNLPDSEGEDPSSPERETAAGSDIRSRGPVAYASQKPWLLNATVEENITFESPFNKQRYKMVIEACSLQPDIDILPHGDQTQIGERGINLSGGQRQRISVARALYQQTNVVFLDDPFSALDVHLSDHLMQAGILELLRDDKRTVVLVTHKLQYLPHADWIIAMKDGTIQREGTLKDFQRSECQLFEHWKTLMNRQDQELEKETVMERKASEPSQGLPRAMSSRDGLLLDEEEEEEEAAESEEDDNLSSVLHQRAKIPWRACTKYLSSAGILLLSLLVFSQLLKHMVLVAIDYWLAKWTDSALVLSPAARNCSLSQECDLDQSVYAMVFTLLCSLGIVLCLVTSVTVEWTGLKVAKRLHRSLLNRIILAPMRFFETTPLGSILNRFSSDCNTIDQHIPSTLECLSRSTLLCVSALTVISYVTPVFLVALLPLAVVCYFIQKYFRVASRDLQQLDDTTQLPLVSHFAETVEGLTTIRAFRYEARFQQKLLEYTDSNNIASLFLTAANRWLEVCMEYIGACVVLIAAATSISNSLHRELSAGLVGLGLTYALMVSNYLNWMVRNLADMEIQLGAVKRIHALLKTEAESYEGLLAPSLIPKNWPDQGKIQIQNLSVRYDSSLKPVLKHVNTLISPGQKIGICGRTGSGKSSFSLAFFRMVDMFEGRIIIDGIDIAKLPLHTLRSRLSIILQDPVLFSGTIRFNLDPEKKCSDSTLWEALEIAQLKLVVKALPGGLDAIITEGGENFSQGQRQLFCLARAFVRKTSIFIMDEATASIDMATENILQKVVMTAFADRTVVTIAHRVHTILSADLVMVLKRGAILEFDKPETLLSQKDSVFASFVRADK

Sigma σ1, sequence (Q99720 whole entry): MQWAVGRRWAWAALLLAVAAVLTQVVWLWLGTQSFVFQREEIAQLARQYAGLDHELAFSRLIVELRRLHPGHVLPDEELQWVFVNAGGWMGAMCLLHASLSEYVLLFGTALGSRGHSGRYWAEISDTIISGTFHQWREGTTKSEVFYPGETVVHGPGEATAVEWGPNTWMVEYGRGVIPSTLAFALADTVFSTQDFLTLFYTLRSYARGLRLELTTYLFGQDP
Cannabinoid CB1, sequence (P21554 whole entry): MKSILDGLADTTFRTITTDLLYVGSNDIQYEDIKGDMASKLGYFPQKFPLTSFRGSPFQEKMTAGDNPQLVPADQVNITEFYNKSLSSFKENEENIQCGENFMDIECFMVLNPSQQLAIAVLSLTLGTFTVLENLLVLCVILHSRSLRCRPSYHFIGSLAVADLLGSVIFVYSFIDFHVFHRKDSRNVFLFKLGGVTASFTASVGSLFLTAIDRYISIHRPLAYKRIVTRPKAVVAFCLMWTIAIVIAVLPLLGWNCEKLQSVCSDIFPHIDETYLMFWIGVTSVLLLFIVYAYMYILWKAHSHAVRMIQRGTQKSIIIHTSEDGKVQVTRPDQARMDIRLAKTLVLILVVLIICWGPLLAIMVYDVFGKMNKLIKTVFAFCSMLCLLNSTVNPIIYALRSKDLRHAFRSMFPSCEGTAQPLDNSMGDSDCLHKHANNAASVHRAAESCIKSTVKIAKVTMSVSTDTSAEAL

Compound | % Inhibition, Rolipram [3] [%] | % Inhibition, GABAA, Muscimol, Central [4] [%] | % Inhibition, GABAA, Flunitrazepam, Central [5] [%] | % Inhibition, Glutamate, NMDA, Phencyclidine [13] [%] | % Inhibition, Phorbol Ester [14] [%] | % Inhibition, Nicotinic Acetylcholine [17] [%] | inhibition at 10 µM [1] [%] | inhibition at 10 µM [2] [%] | inhibition at 10 µM [6] [%] | inhibition at 10 µM [7] [%] | inhibition at 10 µM [8] [%] | inhibition at 10 µM [9] [%] | inhibition at 10 µM [10] [%] | inhibition at 10 µM [11] [%] | inhibition at 10 µM [12] [%] | inhibition at 10 µM [15] [%] | inhibition at 10 µM [16] [%] | inhibition at 10 µM [18] [%] | inhibition at 10 µM [19] [%] | inhibition at 10 µM [20] [%] | further results
O=C(Nc1nnc(-c2ccc(F)cc2)o1)N1CCc2ccccc2C1 [MBX-4132] | 2 | 1 | 13 | −3 | 4 | −8 | – | – | – | – | – | – | – | – | – | – | – | – | – | – | % Inhibition, Cannabinoid CB1 [1]: 14%; % Inhibition, Sigma σ1 [2]: −4%; % Inhibition, Adenosine A2A [6]: 43%; % Inhibition, Adrenergic α1A [7]: 24%; % Inhibition, Adenosine A1 [8]: 48%; % Inhibition, Dopamine D1 [9]: −8%; % Inhibition, Seritonin (5-Hydroxytryptamine) 5-HT2B [10]: 53%; % Inhibition, Adrenergic α1B [11]: 21%; % Inhibition, Opiate μ(OP3, MOP) [12]: 74%; % Inhibition, Muscarinic M3 [15]: 16%; % Inhibition, Transporter, Norepinephrine (NET) [16]: 50%; % Inhibition, Adrenergic β2 [18]: 36%; % Inhibition, Dopamine D2s [19]: 25%; % Inhibition, Prostanoid EP4 [20]: 18%; % Inhibition, Potassium Channel (KATP) [21]: 10%
O=C(Nc1nnc(-c2ccc(F)cc2)o1)N1CC=C(C(F)(F)F)CC1 [compound 4347] | −6 | 4 | 22 | 5 | 7 | −4 | 0 | -2 | 3 | -21 | -4 | 5 | -1 | 7 | -14 | 2 | 32 | 8 | -2 | -4 | inhibition at 10 µM [21]: 2%
O=C(Nc1nnc(-c2ccc(F)cc2)o1)c1ccc(OC2CCCCC2)cc1 [compound 4292] | −8 | −4 | −1 | 0 | 2 | 1 | 11 | 10 | 11 | 9 | 8 | 17 | -7 | 3 | 4 | 0 | 77 | 6 | 1 | 28 | inhibition at 10 µM [21]: 8%
